Source: the supplement of paper PMC13380429
± gives the standard deviation of the averaged measurements.

Columns and labels:
Conditions in all cases: 72 h
Vero E6 [1] = assay: relative viability EC50 (midpoint between 100% and the lowest measured viability); higher = less toxic
Caco-2 [2] = assay: as above
U2OS [3] = assay: as above
HepG2 [4] = assay: as above
Calu-3 [5] = assay: as above
Vero E6 [6] = assay: drug sensitivity score (DSS) for viability; higher = more toxic; extreme values may be limits of the assay
Caco-2 [7] = assay: as above
U2OS [8] = assay: as above
HepG2 [9] = assay: as above
Calu-3 [10] = assay: as above
Vero E6 [11] = assay: cell viability relative to DMSO; higher = less toxic
Caco-2 [12] = assay: as above
U2OS [13] = assay: as above
HepG2 [14] = assay: as above
Calu-3 [15] = assay: as above

Row | SMILES | relative viability EC50 (Vero E6 [1]) | relative viability EC50 (Caco-2 [2]) | relative viability EC50 (U2OS [3]) | relative viability EC50 (HepG2 [4]) | relative viability EC50 (Calu-3 [5]) | drug sensitivity score (Vero E6 [6]) | drug sensitivity score (Caco-2 [7]) | drug sensitivity score (U2OS [8]) | drug sensitivity score (HepG2 [9]) | drug sensitivity score (Calu-3 [10]) | cell viability (Vero E6 [11]; 1 nM) | cell viability (Vero E6 [11]; 10 nM) | cell viability (Vero E6 [11]; 100 nM) | cell viability (Vero E6 [11]; 1000 nM) | cell viability (Vero E6 [11]; 10000 nM) | cell viability (Caco-2 [12]; 1 nM) | cell viability (Caco-2 [12]; 10 nM) | cell viability (Caco-2 [12]; 100 nM) | cell viability (Caco-2 [12]; 1000 nM) | cell viability (Caco-2 [12]; 10000 nM) | cell viability (U2OS [13]; 1 nM) | cell viability (U2OS [13]; 10 nM) | cell viability (U2OS [13]; 100 nM) | cell viability (U2OS [13]; 1000 nM) | cell viability (U2OS [13]; 10000 nM) | cell viability (HepG2 [14]; 1 nM) | cell viability (HepG2 [14]; 10 nM) | cell viability (HepG2 [14]; 100 nM) | cell viability (HepG2 [14]; 1000 nM) | cell viability (HepG2 [14]; 10000 nM) | cell viability (Calu-3 [15]; 1 nM) | cell viability (Calu-3 [15]; 10 nM) | cell viability (Calu-3 [15]; 100 nM) | cell viability (Calu-3 [15]; 1000 nM) | cell viability (Calu-3 [15]; 10000 nM)
1 | C1CCC(/N=C(\NC23CC4CC(CC(C4)C2)C3)N2CCOCC2)CC1 | > 10 µM | > 10 µM | > 10 µM | > 10 µM | > 10 µM | 0 | 0 | 0 | 0 | 0 | 88.3% | 96% | 90.6% | 98.9% | 104% | 101% | 91.7% | 102% | 96.7% | 101% | 96.4% | 94.8% | 102% | 98.6% | 89.5% | 96.1% | 108% | 91.7% | 113% | 108% | 106% | 90.2% | 103% | 89% | 100%
2 | CC(Oc1ccc(O)cc1)(P(=O)(O)O)P(=O)(O)O | > 10 µM | > 10 µM | > 10 µM | > 10 µM | > 10 µM | 0 | 0 | 0 | 0 | 0 | 96.5% | 104% | 97.7% | 98.7% | 95.8% | 110% | 98.7% | 98% | 87.1% | 104% | 104% | 99.5% | 105% | 98% | 100% | 106% | 95.4% | 97.6% | 99.2% | 102% | 106% | 88.6% | 103% | 84.8% | 97.1%
3 | CC1=NN=C(c2ccc(N)cc2)c2cc3c(cc2C1)OCO3 | > 10 µM | > 10 µM | > 10 µM | > 10 µM | > 10 µM | 0 | 0.4 | 0 | 0 | 0 | 94.5% | 102% | 98.4% | 104% | 100% | 95.7% | 100% | 107% | 102% | 81% | 93.3% | 93.9% | 99.3% | 96.8% | 94% | 109% | 93.2% | 104% | 97.9% | 106% | 107% | 88.2% | 103% | 87.6% | 95.1%
4 | CCCNCCc1ccc(NS(=O)(=O)c2ccc(OC(F)(F)F)cc2)cc1 | > 10 µM | > 10 µM | > 10 µM | > 10 µM | > 10 µM | 0 | 0 | 0 | 1.1 | 0 | 116% | 106% | 101% | 103% | 88.2% | 102% | 102% | 91.5% | 103% | 98.2% | 105% | 104% | 100% | 98.4% | 92.9% | 101% | 92.5% | 104% | 85.5% | 90% | 97.8% | 108% | 102% | 100% | 97.4%
5 | CN(C)CCn1cc(S(=O)(=O)c2cccc(F)c2)c2cccnc21 | > 10 µM | > 10 µM | > 10 µM | > 10 µM | > 10 µM | 0 | 0 | 0 | 0 | 0 | 98.6% | 102% | 101% | 105% | 97.7% | 98.2% | 102% | 106% | 98.8% | 103% | 103% | 98.3% | 99.9% | 98.2% | 103% | 106% | 110% | 91.8% | 103% | 97.5% | 116% | 94.7% | 90.4% | 97.5% | 95.3%
6 | COCCOc1ccc2c(c1)ncn2-c1ccc2cccc(N3CCC(N)CC3)c2n1 | 2.35 µM | > 10 µM | 2.47 µM | 2.57 µM | > 10 µM | 3.6 | 0 | 3.7 | 6.1 | 0 | 98.3% | 97.1% | 102% | 94.9% | 48.5% | 94.1% | 108% | 98.2% | 104% | 90.4% | 98.6% | 104% | 95.3% | 95.4% | 45.2% | 99.3% | 101% | 98.3% | 93.3% | 8.1% | 96% | 92.7% | 103% | 123% | 87.4%
7 | COc1ccc(CCC(=O)Nc2nc3ccc(Cl)cc3s2)cc1OC | > 10 µM | > 10 µM | > 10 µM | > 10 µM | > 10 µM | 0 | 0.3 | 0 | 0 | 0.1 | 101% | 96.9% | 97.3% | 101% | 95.2% | 102% | 94% | 95.9% | 92.1% | 85.4% | 101% | 94.7% | 98.5% | 95.1% | 96.3% | 96.5% | 110% | 96.3% | 98.3% | 98.1% | 102% | 94.9% | 92.7% | 91.7% | 89.3%
8 | NC1=N[C@@]2(c3cc(NC(=O)c4ccc(F)cn4)ccc3F)COC[C@H]2CS1 | > 10 µM | > 10 µM | > 10 µM | > 10 µM | > 10 µM | 0 | 0 | 0 | 0 | 0 | 95.5% | 97.2% | 94.3% | 99.4% | 102% | 94.8% | 93.7% | 101% | 86% | 103% | 98.6% | 94.6% | 101% | 98.4% | 100% | 99.9% | 110% | 93.4% | 112% | 105% | 103% | 96.5% | 93.4% | 93.1% | 98.5%
9 | Cc1ccc2c(c1)C(=O)[C@]1(O)CCN(c3ccccc3)C1=N2 (racemic) [blebbistatin-(+/-)] | > 10 µM | > 10 µM | > 10 µM | > 10 µM | > 10 µM | 0.15 ± 0.21 | 0.3 ± 0.42 | 0.05 ± 0.071 | 0 | 0 | 98.6 ± 0.99% | 96.6 ± 4.5% | 96.4 ± 4.4% | 95.5 ± 3.9% | 93.4 ± 10% | 100 ± 2.5% | 97.25 ± 0.49% | 97.9 ± 2.1% | 98.5 ± 1.1% | 94.2 ± 16% | 99.4 ± 1.6% | 101.2 ± 0.78% | 97.8 ± 1.8% | 99.85 ± 0.35% | 95.2 ± 12% | 98 ± 1.3% | 88.2 ± 0.92% | 98.3 ± 8.3% | 89 ± 9.6% | 96 ± 7% | 99 ± 11% | 95.9 ± 0.28% | 95.5 ± 10% | 109 ± 3.2% | 136 ± 9.8%
10 | C=C[C@H]1CN2CC[C@H]1CC2C(OC(=O)OCC)c1ccnc2ccc(OC)cc12 (stereo in doubt) [quinine-ethyl-carbonate] | > 10 µM | > 10 µM | > 10 µM | > 10 µM | > 10 µM | 0 | 0 | 0 | 0 | 0 | 104% | 95.9% | 105% | 107% | 100% | 114% | 97.1% | 94.2% | 105% | 114% | 99.9% | 97.3% | 101% | 96.9% | 96.9% | 93.2% | 97.7% | 100% | 104% | 97.4% | 99.9% | 104% | 102% | 90.4% | 101%
11 | OC[C@H]1O[C@@H](O[C@@H]2[C@H](O)[C@@H](O)[C@H](O[C@H]3[C@H](O)[C@@H](O)C(O)O[C@@H]3CO)O[C@@H]2CO)[C@H](O)[C@@H](O)[C@H]1O (stereo not given in full) [4-galactosyllactose] | > 10 µM | > 10 µM | > 10 µM | > 10 µM | > 10 µM | 0 | 2.5 | 0 | 0 | 0 | 97.3% | 105% | 103% | 101% | 99.2% | 118% | 96.6% | 123% | 78.8% | 91.7% | 103% | 96.4% | 102% | 94.8% | 101% | 111% | 113% | 101% | 102% | 98.3% | 102% | 99.3% | 98.2% | 93.3% | 101%
12 | CCN1C(C)(C)CC(Oc2ccc(C(=O)Nc3ccc(NC(=O)Nc4cc(C(C)(C)C)on4)cc3)nc2)CC1(C)C [AC-710] | > 10 µM | > 10 µM | > 10 µM | > 10 µM | > 10 µM | 0 | 0 | 0 | 0 | 0.2 | 101% | 106% | 99.9% | 104% | 96.8% | 100% | 89.4% | 100% | 94.4% | 88.2% | 98.9% | 97% | 98.9% | 99.9% | 94.3% | 100% | 97.7% | 94.1% | 105% | 87.3% | 108% | 105% | 97.4% | 89.4% | 94%
13 | OB1OCc2cc(Cl)ccc21 [AN2718] | > 10 µM | > 10 µM | > 10 µM | > 10 µM | > 10 µM | 0 | 0.4 | 0 | 0 | 0 | 101% | 99.8% | 94.7% | 96.9% | 103% | 93.8% | 102% | 82.2% | 98.8% | 82.7% | 101% | 98% | 96.1% | 98.2% | 98.7% | 120% | 107% | 107% | 94% | 108% | 100% | 89% | 90.6% | 102% | 92.8%
14 | NC(=O)c1cn([C@@H]2O[C@H](CO)[C@@H](O)[C@H]2O)c2ncnc(N)c2c1=O [API-1] | 2.1 µM | 1.53 µM | 2.98 µM | 0.544 µM | 0.639 µM | 4 | 5.6 | 5.9 | 13.6 | 10.6 | 97% | 89.7% | 94.8% | 93% | 47.3% | 92.3% | 92.9% | 85% | 80.1% | 36.4% | 95.7% | 98.8% | 91.1% | 97.5% | 0.9% | 106% | 97.9% | 84.9% | 39% | 4.5% | 97% | 107% | 87.5% | 52.7% | 20.7%
